The text below walks through data of US20110269783A1, “NOVEL 2,3-DIAMINO-QUINAZOLINONE DERIVATIVES AND THEIR MEDICAL USE” (NEUROSEARCH A/S, priority 2008, published 2011).

The test deals with T1, human Kv7.2+3 (Homo sapiens, UniProt O43525+O43526).
T1 construct: expressed in transfected cells; host or cells: HEK293
In words: FLIPR-based thallium influx characterization of Kv7.2+3 modulators. It counts as cell-based. As to conditions: for EC50: HEK293 cells over-expressing human Kv7.2+3, Tl+ influx, BTC-AM, FLIPR, 50% of channel activity compared to retigabine control responses; for Emax: maximal response relative to the reference (retigabine) response, HEK293 human Kv7.2+3, Tl+ influx FLIPR, read-out: Efficacy. As for the experimental part: This experiment determines the ability of a test compound to modulate the activity of Kv7.2+3 channels heterologously expressed in human HEK293 cells. The ability is determined relative to retigabine. The activity is determined using a standard thallium (I) sensitive assay, e.g. using a fluorometric method in a Fluorescent Image Plate Reader (FLIPR) as described below in more detail.
Full concentration/response curves are generated and EC50 values are calculated based on max values. EC50 values (Effective Concentration) represent the concentration of the test substance, at which 50% of the channel activity is obtained when compared to retigabine control responses. Maximal response determined relative to the reference (retigabine) response is calculated.
Human HEK293 cells over-expressing human Kv7.2+3 are grown in culture medium (DMEM supplemented with 10% foetal bovine serum), in polystyrene culture flasks ([…]) in a humidified atmosphere of 5% CO2 in air, at 37° C. Cell confluence should be 80-90% on day of plating. Cells are rinsed with 4 ml of PBS (phosphate buffered saline) and incubated 2 min with 1 ml of Trypsin-EDTA. After addition of 25 ml of culture medium cells are re-suspended by trituration with a 25 ml pipette.
The cells are seeded at a density of ˜3×10^6 cells/ml (25 μl/well) in black-walled, clear bottom, 384-well plates pre-treated with 0.01 g/l poly-D-lysin (20 μl/well for ≧30 min). Plated cells were allowed to proliferate for 24 h before loading with dye.
BTC-AM ([…], Invitrogen) is added 25.5 μl DMSO. The BTC-AM stock solution (2 mM) is diluted to a final concentration of 2 μM in Cl^− free assay buffer (in mM: 140 Natgluconate, 2.5 K^+-gluconate, 6 Ca2^+-gluconate, 1 Mg^2+ gluconate, 5 glucose, 10 HEPES, pH 7.3) containing 2 μM ouabain, 2 mM amaranth and 1 mM tartrazine.
The culture medium is aspirated from the wells, the cells are washed thrice in Cl^− free assay buffer, and 25 μl of the BTC-AM loading solution is added to each well. The cells are incubated at 37° C. for 60 min.
After the loading period, the Tl^+-sensitive BTC fluorescence signal is measured over time using a FLIPR.
• Temperature: Room temp. • First addition: 12 μl test or control compound after 15 sec at a rate of 30 μl/sec and starting height of 20 μl • Second addition: 12 μl stimulus buffer (Cl^− free assay buffer supplemented with 1 mM Tl2SO4, 5 mM K2SO4 as well as the quenchers amaranth (2 mM) and tartrazine (1 mM)) is added after an additional 3 minutes at a rate of 30 μl/sec and starting height of 30 μl • Reading intervals: First sequence—3 sec×5, 2 sec×24 and 5 sec×25 • Second sequence—1 sec×5, 2 sec×24 and 5 sec×36
Addition plates (compound plate and stimulus plate) are placed in positions 2 and 3, respectively. Cell plates are placed in position 1 and run using the “KCNQ (two additions)” program. FLIPR will then take the appropriate measurements in accordance with the interval settings above. Fluorescence obtained after stimulation is corrected for the mean basal fluorescence (in Cl^− free assay buffer).
Full concentration/response curves are generated and EC50 values (“Effective Concentration”; the concentration at which 50% of the channel activity is obtained when compared to retigabine control responses) are calculated based on peak values. Maximal response determined relative to the reference (retigabine) response is calculated.

`CCN(C)c1nc2cc(F)ccc2c(=O)n1NC(=O)[C@@H]1C[C@@H]1c1ccc(Cl)cc1` (relative stereo) [Compound 2.4, cis-2-(4-Chloro-phenyl)-cyclopropanecarboxylic acid [2-(ethyl-methyl-amino)-7-fluoro-4-oxo-4H-quinazolin-3-yl]-amide]: the half-maximal effective concentration (EC50) came out at 940 nM and the Emax was determined as 114%.
Taken in the same sequence, the figures for `COCCN(C)c1nc2ccccc2c(=O)n1NC(=O)CCc1cccc(F)c1` [Compound 1.2, 3-(3-Fluoro-phenyl)-N-{2-[(2-methoxy-ethyl)-methyl-amino]-4-oxo-4H-quinazolin-3-yl}-propionamide] were 9500 nM and 130%.
Regarding `CC(C)N(C)c1nc2cc(F)cc(F)c2c(=O)n1NC(=O)CCc1cccc(F)c1` [Compound 1.14, N-[5,7-Difluoro-2-(isopropyl-methyl-amino)-4-oxo-4H-quinazolin-3-yl]-3-(3-fluoro-phenyl)-propionamide], a half-maximal effect (EC50) was put at 450 nM and the Emax came to 109%.
For `O=C(COc1ccccc1)Nn1c(N2CCCC2)nc2ccccc2c1=O` [Compound 1.9, N-(4-Oxo-2-pyrrolidin-1-yl-4H-quinazolin-3-yl)-2-phenoxy-acetamide], in that order: 12000 nM and 75%.
Taken in the same sequence, the figures for `CCN(C)c1nc2cc(F)cc(F)c2c(=O)n1NC(=O)[C@@H]1C[C@@H]1c1ccc(Cl)cc1` (relative stereo) [Compound 2.6, cis-2-(4-Chloro-phenyl)-cyclopropanecarboxylic acid [2-(ethyl-methyl-amino)-5,7-difluoro-4-oxo-4H-quina-zolin-3-yl]-amide] were 500 nM and 110%.
Taken in the same sequence, the figures for `CC(C)N(C)c1nc2cc(F)ccc2c(=O)n1NC(=O)[C@@H]1C[C@@H]1c1ccc(Cl)cc1` (relative stereo) [Compound 2.5, cis-2-(4-Chloro-phenyl)-cyclopropanecarboxylic acid [7-fluoro-2-(isopropyl-methyl-amino)-4-oxo-4H-quinazolin-3-yl]-amide] were 930 nM and 114%.
As for `O=C(CCc1cccc(F)c1)Nn1c(N2CCCC2)nc2cc(F)ccc2c1=O` [Compound 1.1, N-(7-Fluoro-4-oxo-2-pyrrolidin-1-yl-4H-quinazolin-3-yl)-3-(3-fluoro-phenvl)-propion-amide], the 50% effective concentration (EC50) was found to be 260 nM and the Emax is 154%.
For `O=C(CCc1cccc(F)c1)Nn1c(N2CCCC2)nc2cc(F)cc(F)c2c1=O` [Compound 1.12, N-(5,7-Difluoro-4-oxo-2-pyrrolidin-1-yl-4H-quina-zolin-3-yl)-3-(3-fluoro-phenyl)-propionamide], in that order: 32 nM and 122%.
Take `CC(CC(=O)Nn1c(N2CCCC2)nc2ccccc2c1=O)c1cccc(F)c1` (stereo not shown) [Compound 1.18, 3-(3-Fluoro-phenyl)-N-(4-oxo-2-pyrrolidin-1-yl-4H-quinazolin-3-yl)-butyramide]: the half-maximal effective concentration (EC50) came out at 15 nM and the Emax was 98%.
For `O=C(Nn1c(N2CCCC2)nc2c(F)cccc2c1=O)[C@@H]1C[C@@H]1c1ccc(Cl)cc1` (relative stereo) [Compound 2.7, cis-2-(4-Chloro-phenyl)-cyclopropanecarboxylic acid (8-fluoro-4-oxo-2-pyrrolidin-1-yl-4H-quinazolin-3-yl)-amide], the concentration giving a half-maximal response (EC50) amounted to 270 nM and the Emax is 101%.
For `CN(Cc1ccccc1)c1nc2ccccc2c(=O)n1NC(=O)CCc1cc(F)cc(F)c1` [Compound 1.4, N-[2-(Benzyl-methyl-amino)-4-oxo-4H-quinazolin-3-yl]-3-(3,5-difluoro-phenyl)-propionamide], in that order: 3900 nM and 40%.
Turning to `CN(C)c1nc2cc(F)ccc2c(=O)n1NC(=O)CCc1cccc(F)c1` [Compound 1.7, N-(2-Dimethylamino-7-fluoro-4-oxo-4H-quinazolin-3-yl)-3-(3-fluoro-phenyl)-propionamide], the EC50 stood at 2500 nM and the Emax was determined as 112%.
For `O=C(CSc1ccccc1)Nn1c(N2CCCC2)nc2ccccc2c1=O` [Compound 1.8, N-(4-Oxo-2-pyrrolidin-1-yl-4H-quinazolin-3-yl)-2-phenylsulfanyl-acetamide], in that order: 3300 nM and 103%.
For `O=C(CCc1cccc(F)c1)Nn1c(N2CCCC2)nc2cccc(F)c2c1=O` [Compound 1.10, N-(5-Fluoro-4-oxo-2-pyrro-lidin-1-yl-4H-quinazolin-3-yl)-3-(3-fluoro-phenyl)-propionamide], in that order: 340 nM and 100%.
For `CN(Cc1ccccc1)c1nc2ccccc2c(=O)n1NC(=O)CCc1cccc(F)c1` [Compound 1.3, N-[2-(Benzyl-methyl-amino)-4-oxo-4H-quinazolin-3-yl]-3-(3-fluoro-phenyl)-propion-amide], the EC50 is 1600 nM and the Emax came to 118%.
Taken in the same sequence, the figures for `O=C(CCc1cc(F)cc(F)c1)Nn1c(N2CCCC2)nc2cc(F)cc(F)c2c1=O` [Compound 1.15, N-(5,7-Difluoro-4-oxo-2-pyrrolidin-1-yl-4H-quina-zolin-3-yl)-3-(3,5-difluoro-phenyl)-propionamide] were 18 nM and 112%.
As for `CC(C)N(C)c1nc2cc(F)cc(F)c2c(=O)n1NC(=O)[C@@H]1C[C@@H]1c1ccc(Cl)cc1` (relative stereo) [Compound 2.2, cis-2-(4-Chloro-phenyl)-cyclopropanecarboxylic acid [5,7-difluoro-2-(isopropyl-methyl-amino)-4-oxo-4H-quinazolin-3-yl]-amide], the EC50 worked out at 450 nM and the Emax is 116%.
Taken in the same sequence, the figures for `O=C(Nn1c(N2CCCC2)nc2cc(F)cc(F)c2c1=O)[C@@H]1C[C@@H]1c1ccc(Cl)cc1` (relative stereo) [Compound 2.3, cis-2-(4-Chloro-phenyl)-cyclopropanecarboxylic acid (5,7-difluoro-4-oxo-2-pyrro-lidin-1-yl-4H-quinazolin-3-yl)-amide] were 830 nM and 109%.
For `CC(CC(=O)Nn1c(N2CCCC2)nc2ccccc2c1=O)c1ccc(Cl)cc1` (stereo not shown) [Compound 1.17, 3-(4-Chloro-phenyl)-N-(4-oxo-2-pyrrolidin-1-yl-4H-quinazolin-3-yl)-butyramide], the EC50 amounted to 100 nM and the Emax turned out to be 85%.
In the case of `CC(C)(C)c1ccc(SCC(=O)Nn2c(N3CCCC3)nc3ccccc3c2=O)cc1` [Compound 1.13, 2-(4-tert-Butyl-phenyl-sulfanyl)-N-(4-oxo-2-pyrro-lidin-1-yl-4H-quinazolin-3-yl)-acetamide], a half-maximal response (EC50) required 2100 nM and the Emax is 41%.
Consider `O=C(CSc1ccc(F)cc1)Nn1c(N2CCCC2)nc2ccccc2c1=O` [Compound 1.11, 2-(4-Fluoro-phenylsulfanyl)-N-(4-oxo-2-pyrrolidin-1-yl-4H-quinazolin-3-yl)-acetamide], for which the EC50 turned out to be 2200 nM and the Emax was found to be 106%.
For `C[C@@H](CC(=O)Nn1c(N2CCCC2)nc2cc(F)cc(F)c2c1=O)c1ccccc1` [Compound 1.16, (S)-N-(5,7-Difluoro-4-oxo-2-pyrrolidin-1-yl-4H-quina-zolin-3-yl)-3-phenyl-butyr-amide], in that order: 2.8 nM and 68%.
Taken in the same sequence, the figures for `CN(C)c1nc2cc(F)ccc2c(=O)n1NC(=O)[C@@H]1C[C@@H]1c1ccc(Cl)cc1` (relative stereo) [Compound 2.1, cis-2-(4-Chloro-phenyl)-cyclopropanecarboxylic acid (2-dimethylamino-7-fluoro-4-oxo-4H-quinazolin-3-yl)-amide] were 1400 nM and 118%.

Usually EC50 stands for the concentration at which the effect is half-maximal. Read a low EC50 as an effect from little substance.
